Results from patent publication US20080214844A1, “Icaritin and desmethylicaritin as anti-cancer agents” (priority 2007, published 2008).
Each block holds one compound with its values, some of them ahead of it.

How the values were obtained:
LNCAP = experiment: MTT cell viability assay, LNCAP; type: cell-based, human; conditions: Prostate, 3 days culture
Procedure: (§1) 26 cancer cell lines were grown in normal growth medium in the presence of different concentrations Icaritin or Desmethylicaritin. After culture for 3 days, the cell viability was then measured by an MTT assay. […] Some EC50s were lower than 10 uM for these two compounds. […] Whereas, normal human mammary gland epithelial cells (MCF10A) were not sensitive to Icaritin and Desmethylicaritin. These cells grew well when treated with these two compounds at a concentration of 50 uM.

D145 = experiment: MTT cell viability assay, D145; type: cell-based, human; conditions: D145, Prostate, 3 days culture
Procedure: as §1

PC3 = experiment: MTT cell viability assay, PC3; type: cell-based, human; conditions: PC3, Prostate, 3 days culture
Procedure: as §1

HCT-116 = experiment: MTT cell viability assay, HCT-116; type: cell-based, human; conditions: HCT-116, Colon, 3 days culture
Procedure: as §1

Widr = experiment: MTT cell viability assay, Widr; type: cell-based, human; conditions: Colon, 3 days culture
Procedure: as §1

HT29 = experiment: MTT cell viability assay, HT29; type: cell-based, human; conditions: HT29, Colon, 3 days culture
Procedure: as §1

LoVo = experiment: MTT cell viability assay, LoVo; type: cell-based, human; conditions: Colon, 3 days culture
Procedure: as §1

CCL-225 = experiment: MTT cell viability assay, CCL-225; type: cell-based, human; conditions: CCL-225, Colon, 3 days culture
Procedure: as §1

CCL-247 = experiment: MTT cell viability assay, CCL-247; type: cell-based, human; conditions: CCL-247, Colon, 3 days culture
Procedure: as §1

NCI-H23 = experiment: MTT cell viability assay, NCI-H23; type: cell-based, human; conditions: NCI-H23, Lung, 3 days culture
Procedure: as §1

A549 = experiment: MTT cell viability assay, A549; type: cell-based, human; conditions: A549, Lung, 3 days culture
Procedure: as §1

MDA-MB-231 = experiment: MTT cell viability assay, MDA-MB-231; type: cell-based, human; conditions: MDA-MB-231, Breast, 3 days culture
Procedure: as §1

MDA-MB-435 = experiment: MTT cell viability assay, MDA-MB-435; type: cell-based, human; conditions: MDA-MB-435, Breast, 3 days culture
Procedure: as §1

AU-565 = experiment: MTT cell viability assay, AU-565; type: cell-based, human; conditions: AU-565, Breast, 3 days culture
Procedure: as §1

BT-549 = experiment: MTT cell viability assay, BT-549; type: cell-based, human; conditions: BT-549, Breast, 3 days culture
Procedure: as §1

MCF-7 = experiment: MTT cell viability assay, MCF-7; type: cell-based, human; conditions: MCF-7, Breast, 3 days culture
Procedure: as §1

Caki-1 = experiment: MTT cell viability assay, Caki-1; type: cell-based, human; conditions: Caki-1, Kidney, 3 days culture
Procedure: as §1

ACHN = experiment: MTT cell viability assay, ACHN; type: cell-based, human; conditions: Kidney, 3 days culture
Procedure: as §1

786-O = experiment: MTT cell viability assay, 786-O; type: cell-based, human; conditions: Kidney, 3 days culture
Procedure: as §1

SN12C = experiment: MTT cell viability assay, SN12C; type: cell-based, human; conditions: Kidney, 3 days culture
Procedure: as §1

SKOV3 = experiment: MTT cell viability assay, SKOV3; type: cell-based, human; conditions: SKOV3, Ovary, 3 days culture
Procedure: as §1

IGROV1 = experiment: MTT cell viability assay, IGROV1; type: cell-based, human; conditions: IGROV1, Ovary, 3 days culture
Procedure: as §1

Mid PaCa-2 = experiment: MTT cell viability assay, Mid PaCa-2; type: cell-based, human; conditions: Mid PaCa-2, Pancreas, 3 days culture
Procedure: as §1

U-251 = experiment: MTT cell viability assay, U-251; type: cell-based, human; conditions: U-251, Glioblastoma, 3 days culture
Procedure: as §1

SK-MEL-5 = experiment: MTT cell viability assay, SK-MEL-5; type: cell-based, human; conditions: SK-MEL-5, Skin, 3 days culture
Procedure: as §1

G-361 = experiment: MTT cell viability assay, G-361; type: cell-based, human; conditions: G-361, Skin, 3 days culture
Procedure: as §1

Raji = experiment: MTT cell viability assay, Raji; type: cell-based, human; conditions: Lymphoma, 3 days culture
Procedure: as §1

Jurkat T cell = experiment: MTT cell viability assay, Jurkat T cell; type: cell-based, human; conditions: Leukemia, 3 days culture
Procedure: as §1

MCF-10a = experiment: MTT cell viability assay, MCF-10a normal breast epithelial cells; type: cell-based, human
Procedure: as §1

[1] = tested on: FAS protein levels in LNCaP cells; experiment: Western blot analysis for FAS protein levels; type: cell-based, human
[2] = tested on: LNCaP cells and MDA-MB-231 cells; experiment: Synthesis of lipid classes in cancer cells; type: cell-based, human
Procedure: Icaritin and Desmethylicaritin decrease Lipogenesis in Prostate and Breast Cancer cells via inhibition of fatty acid synthase (FAS) Activity. Protein extracts from LNCaP cells, which had been ^14C-labeled with malonyl-CoA, were pretreated with these two compounds. A concentration of 0.5 μM Icaritin or Desmethylicaritin reduced the in vitro enzymatic FAS activity to less than 50%. […] Consistent with their FAS inhibitory effect, inhibition of lipogenesis by Icaritin and Desmethylicaritin affected the synthesis of phospholipids (including phosphatidylcholine, phosphatidylethanolamine, phosphatidylinositol, phosphatidylserine, and sphingomyelin) and of triglycerides in LNCaP cells and MDA-MB-231 cells. […] Cholesterol synthesis, however, accounts for less than 10% of the total lipogenic activity in LNCaP and MDA-MB-231 cancer cells, whereas ˜75 and 15% of the lipogenic activity in these cells represents phospholipid and triglyceride synthesis, respectively.

estrogen receptor = conditions: mediated by the estrogen receptor; cited from earlier work
[3] = tested on: highly metastatic human lung cancer cells (PG); conditions: PG cells in vitro; cited from earlier work
[4] = tested on: hepatoma or leukemia cell lines; conditions: other studies; cited from earlier work

IC50 (LNCAP): 6.1 µM | IC50 (PC3): 10.6 µM | IC50 (HCT-116): 6.9 µM | IC50 (HT29): 16.8 µM | IC50 (LoVo): 10.5 µM | IC50 (NCI-H23): 6.5 µM | IC50 (A549): 10.7 µM | IC50 (MDA-MB-231): 6.5 µM | IC50 (MDA-MB-435): 12.7 µM | IC50 (BT-549): 9.6 µM | IC50 (MCF-7): 24.8 µM | IC50 (ACHN): 9.7 µM | IC50 (786-O): 10.9 µM | IC50 (SKOV3): 10.4 µM | IC50 (U-251): 7.3 µM | IC50 (SK-MEL-5): 10.8 µM | IC50 (Raji): 5.2 µM | IC50 (Jurkat T cell): 4.9 µM
Compound: CC(C)=CCc1c(O)cc(O)c2c(=O)c(O)c(-c3ccc(O)cc3)oc12 [Desmethylicaritin]
IC50 (D145): 9.8 µM | IC50 (Widr): 11.3 µM | IC50 (CCL-225): 8.9 µM | IC50 (CCL-247): 17.6 µM | IC50 (AU-565): 8.9 µM | IC50 (Caki-1): 7.5 µM | IC50 (SN12C): 15.9 µM | IC50 (IGROV1): 11.2 µM | IC50 (Mid PaCa-2): 8.6 µM | IC50 (G-361): 7.4 µM | IC50 (MCF-10a; MCF-10a, Normal breast epithelial cells, 3 days culture, MTT): > 50 µM | sensitivity of normal human mammary gland epithelial cells (MCF10A) (MCF-10a; cells grew well at 50 uM): not sensitive | FAS protein levels (Western blot) [1]: did not influence | synthesis of cholesterol ([2]; LNCaP and MDA-MB-231 cells): decreased | synthesis of phospholipids and of triglycerides ([2]; LNCaP cells and MDA-MB-231 cells): affected | estrogenic effect (estrogen receptor): week phytoestrogens

Compound: COc1ccc(-c2oc3c(CC=C(C)C)c(O[C@@H]4O[C@H](CO)[C@@H](O)[C@H](O)[C@H]4O)cc(O)c3c(=O)c2O[C@@H]2O[C@@H](C)[C@H](O)[C@@H](O)[C@H]2O)cc1 [ICA, Icariin]
PG cells adhesive ratio to laminin substrate [3]: decreased | ability of invasion or migration [3]: decreased | cAMP/cGMP ratio [3]: increased | distribution of PG cells cycle [3]: reduce S phase | expression of membrane HLA-ABC antigen [3]: increase | level of cAMP in PG cells [3]: increased | level of cGMP [3]: reduced | membrane fluidity of PG [3]: enhance | inhibition of hepatoma or leukemia cell lines [4]: no inhibition
